Test results: US12054494B2, “Compound with anticancer activity” (KYOWA KIRIN CO., LTD., priority 2018, dated 2024)

System: SU-DHL-4 cells
Test: Inhibitory effect on cell viability (Cell Counting Kit-8)
Type: cell-based
Details: Homo sapiens, 72 hours culture with test compound, concentration showing 90% inhibition rate of cell viability
In short: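 IC90 corresponds to 90% loss of viability, measured as CCK-8 absorbance at 450 nm (2-3 h colour development). Compounds in 9 dilutions (0.1% DMSO) were applied for 72 h at 37° C to SU-DHL-4 lymphoma cells seeded at 2000/well in RPMI1640/10% FBS after 18-25 h preculture.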

Q: For `CCC(=O)N1c2ccccc2[C@H](Nc2ccc(C(=O)NCC#CC(=O)Nc3ccc(C4=NCc5nnc(C)n5-c5sc(C)c(C)c54)cc3)cc2)C[C@@H]1C` [Compound 14g, 4-(((2S,4R)-2-Methyl-1-propionyl-1,2,3,4-tetrahydroquinolin-4-yl)amino)-N-(4-oxo-4-((4-(2,3,9-trimethyl-6H-thieno[3,2-f][1,2,4]triazolo[4,3-a][1,4]diazepin-4-yl)phenyl)amino)but-2-yn-1-yl)benzamide], which IC90 is on record?
A: The IC90 was 0.03 nM.

Q: For `CCC(=O)N1c2ccccc2[C@H](NCc2ccc(C(=O)N3CC(C(=O)Nc4ccc(N[C@@H]5C[C@H](C)N(C(=O)CC)c6ccccc65)cc4)C3)cc2)C[C@@H]1C` (relative stereo) [Compound 10g, 1-(4-((((2S*,4R*)-2-Methyl-1-propionyl-1,2,3,4-tetrahydroquinolin-4-yl)amino)methyl)benzoyl)-N-(4-(((2S,4R)-2-methyl-1-propionyl-1,2,3,4-tetrahydroquinolin-4-yl)amino)phenyl)azetidine-3-carboxamide], which IC90 is on record?
A: Its IC90 is 1.15 nM.

Q: With `CCC(=O)N1c2ccccc2[C@H](Nc2ccc(C(=O)NCCC(=O)Nc3ccc(C4=NCc5nnc(C)n5-c5sc(C)c(C)c54)cc3)cc2)C[C@@H]1C` [Compound 14m, 4-(((2S,4R)-2-Methyl-1-propionyl-1,2,3,4-tetrahydroquinolin-4-yl)amino)-N-(3-oxo-3-((4-(2,3,9-trimethyl-6H-thieno[3,2-f][1,2,4]triazolo[4,3-a][1,4]diazepin-4-yl)phenyl)amino)propyl)benzamide] as the compound, how does the IC90 read?
A: The IC90 was 1.45 nM.

Q: How did the IC90 turn out when `CCC(=O)N1c2ccccc2[C@H](Nc2ccc(NC(=O)COCC(=O)Nc3ccc(C4=NCc5nnc(C)n5-c5sc(C)c(C)c54)cc3)cc2)C[C@@H]1C` [Compound 14d, N-(4-(((2S,4R)-2-Methyl-1-propionyl-1,2,3,4-tetrahydroquinolin-4-yl)amino)phenyl)-2-(2-oxo-2-((4-(2,3,9-trimethyl-6H-thieno[3,2-f][1,2,4]triazolo[4,3-a][1,4]diazepin-4-yl)phenyl)amino)ethoxy)acetamide] was run?
A: The IC90 was 0.16 nM.

Q: `CCC(=O)N1c2ccccc2[C@H](Nc2ccc(-n3cc(CCNC(=O)c4ccc(Cn5c(C(=O)OCCN(C)C)cc6c5CCCC6=O)cc4)nn3)cc2)C[C@@H]1C` [Compound 15c, 2-(Dimethylamino)ethyl 1-(4-((2-(1-(4-(((2S,4R)-2-methyl-1-propionyl-1,2,3,4-tetrahydroquinolin-4-yl)amino)phenyl)-1H-1,2,3-triazol-4-yl)ethyl)carbamoyl)benzyl)-4-oxo-4,5,6,7-tetrahydro-1H-indole-2-carboxylate] was tested. Which IC90 did it give?
A: The IC90 was 0.3 nM.

Q: For `CCC(=O)N1c2ccc(F)cc2[C@H](Nc2ccc(C(=O)NCCCNC(=O)c3ccc(N[C@@H]4C[C@H](C)N(C(=O)CC)c5ccc(F)cc54)cc3)cc2)C[C@@H]1C` [Compound 10q, N,N′-(Propane-1,3-diyl)bis(4-(((2S,4R)-6-fluoro-2-methyl-1-propionyl-1,2,3,4-tetrahydroquinolin-4-yl)amino)benzamide)], which IC90 is on record?
A: The IC90 was 9.88 nM.

Q: Which IC90 does the source give for `CCC(=O)N1c2ccccc2[C@H](Nc2ccc(NC(=O)C3CN(C(=O)C4CCN(Cc5cc(O)cc(-c6c(C)noc6C)c5)CC4)C3)cc2)C[C@@H]1C` [Compound 12b, 1-(1-(3-(3,5-Dimethylisoxazol-4-yl)-5-hydroxybenzyl)piperidine-4-carbonyl)-N-(4-(((2S,4R)-2-methyl-1-propionyl-1,2,3,4-tetrahydroquinolin-4-yl)amino)phenyl)azetidine-3-carboxamide] here?
A: Its IC90 is 4.35 nM.

Q: For `Cc1sc2c(c1C)C(c1ccc(C(=O)N3CCC(NC(=O)c4ccc(C5=N[C@@H](CC(=O)OC(C)(C)C)c6nnc(C)n6-c6sc(C)c(C)c65)cc4)CC3)cc1)=NCc1nnc(C)n1-2` [Compound 14p, tert-Butyl (S)-2-(2,3,9-trimethyl-4-(4-((1-(4-(2,3,9-trimethyl-6H-thieno[3,2-f][1,2,4]triazolo[4,3-a][1,4]diazepin-4-yl)benzoyl)piperidin-4-yl)carbamoyl)phenyl)-6H-thieno[3,2-f][1,2,4]triazolo[4,3-a][1,4]diazepin-6-yl)acetate], which IC90 is on record?
A: Its IC90 is 1.27 nM.

Q: How did the IC90 turn out when `CCC(=O)N1c2ccccc2[C@H](Nc2ccc(Cc3cnc4n3CCN(C(=O)c3ccc(N[C@@H]5C[C@H](C)N(C(=O)CC)c6ccccc65)cc3)C4)cc2)C[C@@H]1C` [Compound 5q, 1-((2S,4R)-2-Methyl-4-((4-((7-(4-(((2S,4R)-2-methyl-1-propionyl-1,2,3,4-tetrahydroquinolin-4-yl)amino)benzoyl)-5,6,7,8-tetrahydroimidazo[1,2-a]pyrazin-3-yl)methyl)phenyl)amino)-3,4-dihydroquinolin-1(2H)-yl)propan-1-one] was run?
A: Its IC90 is 0.11 nM.

Q: How did the IC90 turn out when `CCC(=O)N1c2ccccc2[C@H](Nc2ccc(C(=O)N3CCC(n4cc(-c5ccc(N[C@@H]6C[C@H](C)N(C(=O)CC)c7ccccc76)cc5)cn4)CC3)cc2)C[C@@H]1C` [Compound 6o, 1-((2S,4R)-2-Methyl-4-((4-(1-(1-(4-(((2S,4R)-2-methyl-1-propionyl-1,2,3,4-tetrahydroquinolin-4-yl)amino)benzoyl)piperidin-4-yl)-1H-pyrazol-4-yl)phenyl)amino)-3,4-dihydroquinolin-1(2H)-yl)propan-1-one] was run?
A: Its IC90 is 0.14 nM.

Q: For `CCC(=O)N1c2ccccc2[C@H](Nc2ccc(C(=O)NCCC(=O)Nc3ccc(N[C@@H]4C[C@H](C)N(C(=O)CC)c5ccccc54)nc3)cc2)C[C@@H]1C` (relative stereo) [Compound 10o, 4-(((2S,4R)-2-Methyl-1-propionyl-1,2,3,4-tetrahydroquinolin-4-yl)amino)-N-(3-((6-(((2S*,4R*)-2-methyl-1-propionyl-1,2,3,4-tetrahydroquinolin-4-yl)amino)pyridin-3-yl)amino)-3-oxopropyl)benzamide], which IC90 is on record?
A: The IC90 was 1.48 nM.

Q: How did the IC90 turn out when `CCC(=O)N1c2ccccc2[C@H](NCCCCCCCC(=O)Nc2ccc(N[C@@H]3C[C@H](C)N(C(=O)CC)c4ccccc43)cc2)C[C@@H]1C` (relative stereo) [Compound 12h, 8-(((2S*,4R*)-2-Methyl-1-propionyl-1,2,3,4-tetrahydroquinolin-4-yl)amino)-N-(4-(((2S,4R)-2-methyl-1-propionyl-1,2,3,4-tetrahydroquinolin-4-yl)amino)phenyl)octanamide] was run?
A: The IC90 was 3.92 nM.

Q: With `CCC(=O)N1c2ccccc2[C@H](Nc2ccc(C(=O)NCC#CC(=O)N3CCC(N[C@@H]4C[C@H](C)N(C(=O)CC)c5ccccc54)CC3)cc2)C[C@@H]1C` [Compound 10c, 4-(((2S,4R)-2-Methyl-1-propionyl-1,2,3,4-tetrahydroquinolin-4-yl)amino)-N-(4-(4-(((2S,4R)-2-methyl-1-propionyl-1,2,3,4-tetrahydroquinolin-4-yl)amino)piperidin-1-yl)-4-oxobut-2-yn-1-yl)benzamide] as the compound, how does the IC90 read?
A: The IC90 was 0.13 nM.

Q: `CCC(=O)N1c2ccccc2[C@H](Nc2ccc(NC(=O)CC(C)CC(=O)Nc3ccc(N[C@@H]4C[C@H](C)N(C(=O)CC)c5ccccc54)cc3)cc2)C[C@@H]1C` (relative stereo) [Compound 4b, 3-Methyl-N^1,N^5-bis(4-{[(2S*,4R*)-2-methyl-1-propionyl-1,2,3,4-tetrahydroquinolin-4-yl]amino}phenyl)pentanediamide] was tested. Which IC90 did it give?
A: The IC90 was 5.87 nM.

Q: With `CCC(=O)N1c2ccccc2[C@H](Nc2ccc(-n3cc(CNC(=O)N4CCC(N[C@@H]5C[C@H](C)N(C(=O)CC)c6ccccc65)CC4)nn3)cc2)C[C@@H]1C` (relative stereo) [Compound 10b, 4-(((2S*,4R*)-2-Methyl-1-propionyl-1,2,3,4-tetrahydroquinolin-4-yl)amino)-N-((1-(4-(((2S,4R)-2-methyl-1-propionyl-1,2,3,4-tetrahydroquinolin-4-yl)amino)phenyl)-1H-1,2,3-triazol-4-yl)methyl)piperidine-1-carboxamide] as the compound, how does the IC90 read?
A: Its IC90 is 0.6 nM.

Q: `CCC(=O)N1c2ccccc2[C@H](Nc2ccc(NC(=O)CCCC(=O)Nc3ccc(N[C@@H]4C[C@H](C)N(C(=O)CC)c5ccccc54)nc3)cc2)C[C@@H]1C` [Compound 10k, N^1-(4-(((2S,4R)-2-Methyl-1-propionyl-1,2,3,4-tetrahydroquinolin-4-yl)amino)phenyl)-N^5-(6-(((2S,4R)-2-methyl-1-propionyl-1,2,3,4-tetrahydroquinolin-4-yl)amino)pyridin-3-yl)glutaramide] was tested. Which IC90 did it give?
A: Its IC90 is 0.93 nM.

Q: How did the IC90 turn out when `CCC(=O)N1c2ccccc2[C@H](Nc2ccc(C(=O)NCc3cn(-c4ccc(N[C@@H]5C[C@H](C)N(C(=O)CC)c6ccccc65)cc4)nn3)cc2)C[C@@H]1C` [Compound 3a, 4-{[(2S,4R)-2-Methyl-1-propionyl-1,2,3,4-tetrahydroquinolin-4-yl]amino}-N-{[1-(4-{[(2S,4R)-2-methyl-1-propionyl-1,2,3,4-tetrahydroquinolin-4-yl]amino}phenyl)-1H-1,2,3-triazol-4-yl]methyl}benzamide] was run?
A: Its IC90 is 0.04 nM.

Q: Which IC90 does the source give for `CCC(=O)N1c2ccccc2[C@H](Nc2ccc(NC(=O)C3CN(C(=O)N4CCC(N[C@@H]5C[C@H](C)N(C(=O)CC)c6ccccc65)CC4)C3)cc2)C[C@@H]1C` (relative stereo) [Compound 10e, N-(4-(((2S*,4R*)-2-Methyl-1-propionyl-1,2,3,4-tetrahydroquinolin-4-yl)amino)phenyl)-1-(4-(((2S,4R)-2-methyl-1-propionyl-1,2,3,4-tetrahydroquinolin-4-yl)amino)piperidine-1-carbonyl)azetidine-3-carboxamide] here?
A: The IC90 was 3.59 nM.

Q: How did the IC90 turn out when `CCC(=O)N1c2ccccc2[C@H](Nc2ccc(NC(=O)NCC(=O)Nc3ccc(C4=NCc5nnc(C)n5-c5sc(C)c(C)c54)cc3)cc2)C[C@@H]1C` [Compound 14h, 2-(3-(4-(((2S,4R)-2-Methyl-1-propionyl-1,2,3,4-tetrahydroquinolin-4-yl)amino)phenyl)ureido)-N-(4-(2,3,9-trimethyl-6H-thieno[3,2-f][1,2,4]triazolo[4,3-a][1,4]diazepin-4-yl)phenyl)acetamide] was run?
A: Its IC90 is 0.34 nM.

Q: With `CCC(=O)N1c2ccccc2[C@H](Nc2ccc(C(=O)NCc3cn(-c4ccc(Cn5c(CC)cc6c5CCCC6=O)cc4)nn3)cc2)C[C@@H]1C` [Compound 15h, N-((1-(4-((2-Ethyl-4-oxo-4,5,6,7-tetrahydro-1H-indol-1-yl)methyl)phenyl)-1H-1,2,3-triazol-4-yl)methyl)-4-(((2S,4R)-2-methyl-1-propionyl-1,2,3,4-tetrahydroquinolin-4-yl)amino)benzamide] as the compound, how does the IC90 read?
A: The IC90 was 2.32 nM.
